# From the OligoGym collection
# Where “and” joins values, the source holds several entries; their conditions need not be identical. Equal values may be shown once. After the bases stand the sugars from the 5' end (letter, count) and the backbone: PS all phosphorothioate, else s phosphorothioate and o phosphodiester by linkage. Methylation of C is not given here. e = 2'-O-(2-methoxyethyl) (MOE); k = constrained ethyl (cEt); d = 2'-deoxy (DNA)
# Target: IRF4
# Conditions: ASO
Sequence,"target mRNA inhibition (MM.1R, 1 µM)","target mRNA inhibition (SK-MEL-28, 4 µM)",further results
"CCGCAAAAGAAACGAG (sugars k3 d10 k3, PS)",-7%,,
"CCGCAGCTCACCGCGC (sugars k3 d10 k3, PS)",,36%,
"CCGCCCGCTCTGCTCT (sugars k3 d10 k3, PS)",,54%,
"CCGCTCAACCAGTTCC (sugars k3 d10 k3, PS)",-12%,,
"CCGGAAGAAGGCACCT (sugars k3 d10 k3, PS)",,17%,
"CCGGAGTCAGTGCTGG (sugars k3 d10 k3, PS)",,-7%,
"CCGGGTTCCTCCACCC (sugars k3 d10 k3, PS)",,9%,
"CCGTCCCAGTAGATCC (sugars k3 d10 k3, PS)",,25%,
"CCGTTCCTTTTTTAGT (sugars k3 d10 k3, PS)",-3%,,
"CCTACAAAATGCCTCC (sugars k3 d10 k3, PS)",,47%,
"CCTACAAGCAGTCATC (sugars k3 d10 k3, PS)",,54%,
"CCTAGAGGTGCCTTCT (sugars k3 d10 k3, PS)",,41%,
"CCTCAGTTTGTGAAGC (sugars k2 d9 e3 k2, PS)",33%,,
"CCTCAGTTTGTGAAGC (sugars kkddddddddddkeke, PS)",16%,,
"CCTCAGTTTGTGAAGC (sugars kkdddddddddekeke, PS)",21%,,
"CCTCAGTTTGTGAAGC (sugars kkkdddddddddkeke, PS)",8%,,
"CCTCAGTTTGTGAAGC (sugars kkkddddddddkekek, PS)",3%,,
"CCTCCATTCTAACAGA (sugars k4 d8 k4, PS)",,-22%,

Sequence,"target mRNA inhibition (MM.1R, 1 µM)","target mRNA inhibition (SK-MEL-28, 4 µM)",further results
"CCTGAAGCTTAGTTAT (sugars k3 d10 k3, PS)",,35%,
"CCTGGCGGAGCATCAA (sugars k3 d10 k3, PS)",,42%,
"CCTGGGACTCAGGTGG (sugars k3 d10 k3, PS)",,59%,"target mRNA inhibition (MM.1R, 0.074 µM): 6%; target mRNA inhibition (MM.1R, 0.222 µM): -6%; target mRNA inhibition (MM.1R, 0.666 µM): 0%; target mRNA inhibition (MM.1R, 2 µM): 13%; target mRNA inhibition (SK-MEL-28, 0.185 µM): 9%; target mRNA inhibition (SK-MEL-28, 5 µM): 64%; target mRNA inhibition (SK-MEL-28, 15 µM): 91%"
"CCTGGTCCAGGTTGCT (sugars k3 d10 k3, PS)",,26%,
"CCTGTACACTTTGTAC (sugars k3 d10 k3, PS)",-2%,,
"CCTTAGGAACGAAGAG (sugars k3 d10 k3, PS)",-6%,,
"CCTTATTAGACTGACA (sugars k3 d10 k3, PS)",,48%,
"CCTTTAGTGTCGCCAT (sugars k3 d10 k3, PS)",,58%,
"CGAAACACAGTCTGCT (sugars k3 d10 k3, PS)",,53%,
"CGACAAGTGGCGCAGA (sugars k3 d10 k3, PS)",2%,,
"CGACAGCATAGCATTA (sugars k3 d10 k3, PS)",,75%,
"CGACAGCTAAAGAACA (sugars k3 d10 k3, PS)",,37%,
"CGAGAACGCACGGACG (sugars k3 d10 k3, PS)",-11%,,
"CGAGAAGAGAGGCTGA (sugars k3 d10 k3, PS)",,7%,
"CGAGATATAAATAGCT (sugars k3 d10 k3, PS)",,53% and 58%,
"CGAGGTTGCCGAGATA (sugars k3 d10 k3, PS)",66% and 60%,,
"CGCAATCTTCTGCTGA (sugars k3 d10 k3, PS)",,64%,
"CGCAATTCTCCTCAAC (sugars k3 d10 k3, PS)",,38%,
